Reference: the Kinase Knowledgebase extract (Sharma et al. 2016)

target: PIK3CG (human) (UniProt P48736); assay: Inhibition of PIK3CG Kinase Activity
Sequence (P48736 whole entry, looked up): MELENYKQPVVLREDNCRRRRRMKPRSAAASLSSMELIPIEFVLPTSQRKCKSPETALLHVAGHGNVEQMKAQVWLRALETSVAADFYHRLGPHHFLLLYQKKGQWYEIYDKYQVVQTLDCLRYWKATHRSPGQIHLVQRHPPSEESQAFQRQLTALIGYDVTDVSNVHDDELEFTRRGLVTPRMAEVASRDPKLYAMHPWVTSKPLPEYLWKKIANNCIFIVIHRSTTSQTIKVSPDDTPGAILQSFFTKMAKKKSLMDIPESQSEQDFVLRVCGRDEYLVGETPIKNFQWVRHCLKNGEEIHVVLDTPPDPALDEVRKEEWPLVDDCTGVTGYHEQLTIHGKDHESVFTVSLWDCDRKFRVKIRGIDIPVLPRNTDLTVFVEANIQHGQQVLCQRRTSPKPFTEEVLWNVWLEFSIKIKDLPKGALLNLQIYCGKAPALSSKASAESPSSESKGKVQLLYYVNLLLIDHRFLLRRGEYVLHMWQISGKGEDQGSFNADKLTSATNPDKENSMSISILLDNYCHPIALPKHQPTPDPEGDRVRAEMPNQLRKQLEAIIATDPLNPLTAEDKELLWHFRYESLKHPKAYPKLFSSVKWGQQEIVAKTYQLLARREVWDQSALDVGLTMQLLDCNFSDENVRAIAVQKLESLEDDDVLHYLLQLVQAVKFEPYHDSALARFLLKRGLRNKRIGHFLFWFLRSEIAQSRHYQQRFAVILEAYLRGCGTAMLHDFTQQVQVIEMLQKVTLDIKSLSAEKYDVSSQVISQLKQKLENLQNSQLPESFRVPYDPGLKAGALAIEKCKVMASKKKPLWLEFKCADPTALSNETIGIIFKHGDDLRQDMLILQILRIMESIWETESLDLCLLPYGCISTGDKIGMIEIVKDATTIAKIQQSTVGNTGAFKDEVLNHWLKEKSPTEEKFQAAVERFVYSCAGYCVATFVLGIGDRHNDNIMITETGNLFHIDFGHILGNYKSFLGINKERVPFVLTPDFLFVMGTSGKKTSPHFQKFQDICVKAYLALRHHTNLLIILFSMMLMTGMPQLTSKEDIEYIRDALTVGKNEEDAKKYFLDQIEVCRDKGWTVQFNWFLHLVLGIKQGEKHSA

Structure (SMILES)	Ki [nM]
COc1ncc(-c2cc(C)c3c(n2)C(C)N(c2cnn(CC(F)F)c2)C3=O)cc1C(=O)O (stereo not drawn)	< 100
COc1cc(-c2cc(C)c3c(n2)CN(c2cnn(C(C)(C)C#N)c2)C3=O)cnc1O	100 to 490
COc1cc(-c2cc(C)c3c(n2)C(OCC2CC2)N(c2cnn(CC(F)(F)F)c2)C3=O)cnc1OC (stereo not drawn)	< 100
COc1cc(-c2ccc3c(n2)[C@@H](C)N(c2cn[nH]c2)C3=O)cnc1OC	< 100
CCOc1cc(-c2cc(C)c3c(n2)CN(c2cnn(CC)c2)C3=O)cnc1OC	< 100
CCn1ccc(N2C(=O)c3c(C)cc(-c4cncc(OC(F)F)c4)nc3[C@@H]2C)n1	< 100
Cc1cc(-c2cncc(S(=O)(=O)NC(C)C)c2)nc2c1C(=O)N(c1cnn(CC(F)(F)F)c1)C2(C)C	< 100
CCOC1(C)c2nc(-c3cnc(OC)c(OC)c3)cc(C)c2C(=O)N1c1cnn(CC(F)(F)F)c1 (stereo not drawn)	< 100
COc1cncc(-c2cc(C)c3c(n2)CN(c2ccn(CC4CCCO4)n2)C3=O)c1 (stereo not drawn)	< 100
COc1cc(-c2cc(C)c3c(n2)CN(c2ccn(C(C)(C)C#N)n2)C3=O)cnc1OC	< 100
CCCOCCOc1ncc(-c2cc(C)c3c(n2)CN(c2cnn(CC(F)(F)F)c2)C3=O)cc1OC	100 to 490
Cc1cc(-c2cncc(C(=O)N3CCCC3)c2)nc2c1C(=O)N(c1cnn(CC(F)(F)F)c1)C2	100 to 490
COc1cc(-c2ccc3c(n2)C(C)N(c2cc[nH]n2)C3=O)cnc1OC (stereo not drawn)	< 100
COc1cc(-c2ccc3c(n2)C(C)N(c2cnn(C=C(F)F)c2)C3=O)cnc1OC (stereo not drawn)	< 100
CCn1ccc(N2C(=O)c3c(C)cc(-c4cncc(OCC(F)F)c4)nc3[C@@H]2C)n1	100 to 490
CCOCCCOc1ncc(-c2cc(C)c3c(n2)CN(c2cnn(CC(F)(F)F)c2)C3=O)cc1OC	100 to 490
COc1cc(-c2cc(C)c3c(n2)CN(c2cnn(CC(F)(F)F)c2)C3=O)ccc1C	< 100
CCn1ncc(N2Cc3nc(-c4cnc(OC)c(OC)c4)cc(C)c3C2=O)n1	< 100
Cc1cc(-c2cncc(OC(F)F)c2)nc2c1C(=O)N(c1ccnc(F)c1)C2C (stereo not drawn)	< 100
COc1cc(-c2ccc3c(n2)C(N2CCOCC2)N(c2cnn(CC(F)(F)F)c2)C3=O)cnc1OC (stereo not drawn)	100 to 490
COc1cc(-c2ccc3c(n2)CN(c2ccc(N4CCC(CCO)CC4)nc2)C3=O)cnc1OC	< 100
Cc1cc(-c2cccnc2NC(=O)C(C)(C)C)nc2c1C(=O)N(c1cnn(CC(F)(F)F)c1)C2	< 100
COc1cc(-c2cc(C)c3c(n2)CN(c2cncc(C#N)c2)C3=O)cnc1OC	< 100
Cc1cc(-c2cnc(C)c(OCC(F)(F)F)c2)nc2c1C(=O)N(c1cnn(CC(F)(F)F)c1)C2(C)C	< 100

Structure (SMILES)	Ki [nM]
Cc1cc(-c2cncc(OC(F)F)c2)nc2c1C(=O)N(c1cn[nH]c1)C2	< 100
COc1cc(-c2ccc3c(c2)CN(c2ccnc(C)c2)C3=O)cnc1OC	100 to 490
COc1cc(-c2ccc3c(n2)CN(c2ccn(CC#N)n2)C3=O)cnc1OC	< 100
COc1cc(-c2ccc3c(n2)[C@@H](C)N(c2ccn(C[C@@H](C)O)n2)C3=O)cnc1OC	< 100
COc1cc(-c2ccc3c(n2)C(C)N(c2ccn(CC(F)(F)F)n2)C3=O)cnc1OC (stereo not drawn)	< 100
COc1cc(-c2ccc3c(n2)CN(c2cncc(C#CCO)c2)C3=O)cnc1OC	100 to 490
Cc1cc(-c2cncc(OCC(F)F)c2)nc2c1C(=O)N(c1cnn(CC(F)(F)F)c1)C2C (stereo not drawn)	< 100
COc1cncc(-c2cc(C)c3c(n2)C2(C[C@@H](O)[C@@H](O)C2)N(c2cnn(CC(F)(F)F)c2)C3=O)c1 (stereo partly drawn)	< 100
CCc1cc(-c2cnc(OC)c(OC)c2)nc2c1C(=O)N(c1cnn(CC(F)(F)F)c1)C2(C)C	< 100
Cc1cc(-c2cnc(C)c(O)c2)nc2c1C(=O)N(c1cnn(CC(F)(F)F)c1)C2	< 100
COc1cc(-c2ccc3c(n2)C(C)N(c2ccn(C[C@@H](C)O)n2)C3=O)cnc1OC (stereo partly drawn)	< 100
CCOc1cc(-c2cc(C)c3c(n2)CN(c2cnn(CC#N)c2)C3=O)cnc1OC	< 100
CCn1ccc(N2Cc3nc(-c4cncc(OC)c4)cc(C)c3C2=O)n1	< 100
COc1cc(-c2ccc3c(n2)CN(c2ccsc2)C3=O)cnc1OC	< 100
CCn1ccc(N2Cc3nc(-c4cncc(OC(F)F)c4)cc(C)c3C2=O)n1	< 100
C#CCNC(=O)c1cncc(-c2cc(C)c3c(n2)C(C)N(c2cnn(CC(F)(F)F)c2)C3=O)c1 (stereo not drawn)	< 100
CCOc1cncc(N2Cc3nc(-c4cnc(OC)c(OC)c4)cc(C)c3C2=O)c1	< 100
CCc1n[nH]c(N2Cc3cc(-c4cnc(OC)c(OC)c4)ccc3C2=O)n1	< 100
CCOc1cc(-c2ccc3c(n2)CN(c2cnn(CC#N)c2)C3=O)cnc1OC	< 100
COc1cc(-c2ccc3c(n2)CN(c2cnn(CC4CC4)c2)C3=O)cnc1OC	< 100
CCCCn1cc(N2Cc3cc(-c4cnc(OC)c(OC)c4)ccc3C2=O)cn1	100 to 490
CCn1nc(N2Cc3cc(-c4cnc(OC)c(OC)c4)ccc3C2=O)cc1C	100 to 490
CCc1ncc(-c2cc(C)c3c(n2)CN(c2cnn(CC(F)(F)F)c2)C3=O)cc1OC	< 100
CCOc1ncc(-c2cc(C)c3c(n2)CN(c2cnn(CC)c2)C3=O)cc1OC	< 100
